Assay results: patent publication US10696686B2, “Herbicidally active (alkynyl-phenyl)-substituted cyclic dione compounds and derivatives thereof” (Syngenta Limited, priority 2013, dated 2020)

Columns and labels:
Assay in all cases: Biological Example 3 glasshouse assay using various adjuvant systems, post-emergence foliar spray
Type in all cases: in vivo
[1] = test system: Zea mays (ZEAMX, maize, corn) cultivar Garland; details: 8 g/ha
Experimental: (§1) Post-emergence foliar spray application, 200 L/ha, usually one or two replicates for the weeds (depending on application rate), and two replicates for soybean.
(§2) Standard warm conditions (tropical), in glasshouse. Specifically, the glasshouse bay conditions are 24° C./18° C. day/night; 16/8 hours light/dark; 65% humidity.
(§3) The herbicidal application takes place at the following growth stages for plants which include inter alia one or more of the following plants (usually the herbicidal application takes place on at least the following plants: DIGSA, ELEIN, SETFA, ZEAMX, GLXMA Nikko, and GLXMA TMG133, and often also either BRADC or BRAPP):
Zea mays (ZEAMX, maize/corn, e.g. can occur as volunteer corn) cultivar “Garland”—growth stage 12 or 13
(§4) Each test compound is applied with one of the following adjuvant systems (all percentages are final concentrations in the aqueous spray mixture):
(§5) Adjuvant system 1: 0.5% v/v Adigor™ *, 1.0% v/v AMS (ammonium sulphate) and 12.5% v/v IPA (isopropyl alcohol).
(§6) Adjuvant system 1A: 0.5% v/v Adigor™ * and 12.5% v/v IPA (isopropyl alcohol).
CAS Registry no. 166412-78-8), and is usually available from BASF. “Isononyl” in this context is thought to mean a mixture of two or more branched isomers of C9H19. […] A visual assessment of the % herbicidal damage is made 7 and 14 Days After herbicide Application (DAA) (or, in a minority of cases, 7 and 15 DAA), and the results are recorded as % visual herbicidal damage where 0%=no damage to plants and 100%=plant totally killed. *** Adjuvant system=either Adigor™ or Hexamoll DINCH™ or tris-(2-ethylhexyl) phosphate each at 0.5% v/v, and 12.5% v/v IPA (isopropyl alcohol), and 1.0% v/v AMS (ammonium sulphate); or 0.5% v/v Adigor™ and 12.5% v/v IPA (isopropyl alcohol); all percentages are final concentrations in the aqueous spray mixture. […]

Eleusine indica (ELEIN) = details: 8 g/ha
Experimental: as §1, §2, §3
Eleusine indica (ELEIN)—growth stage 12 or 13
as §4, §5, §6
CAS Registry no. […] A visual assessment of the % herbicidal damage is made 7 and 14 Days After herbicide Application (DAA) (or, in a minority of cases, 7 and 15 DAA), and the results are recorded as % visual herbicidal damage where 0%=no damage to plants and 100%=plant totally killed. *** Adjuvant system=either Adigor™ or Hexamoll DINCH™ or tris-(2-ethylhexyl) phosphate each at 0.5% v/v, and 12.5% v/v IPA (isopropyl alcohol), and 1.0% v/v AMS (ammonium sulphate); or 0.5% v/v Adigor™ and 12.5% v/v IPA (isopropyl alcohol); all percentages are final concentrations in the aqueous spray mixture. […]
The percentages of herbicidal damage/plant control, at 14 Days After herbicide Application (DAA) (or, in a minority of cases, at 15 DAA), for the Compounds tested and for some of the plants tested, were in the following percentage ranges. […] Phytotoxicity on Glycine max (GLXMA, Soybean) Cultivar “TMG133” Glycine max (GLXMA, soybean) cultivar “TMG133” is Roundup Ready™ glyphosate-tolerant soybean cultivar TMG133, and is typically available from Monsanto in Brazil.

[2] = test system: Glycine max (GLXMA, soybean) cultivar Nikko; details: for percentage phytotoxicity on Glycine max (GLXMA, soybean) cultivar Nikko: post-emergence
Experimental: as §1, §2, §3
Glycine max (GLXMA, soybean) cultivar “Nikko”—growth stage: 1st trifoliate
as §4, §5, §6
CAS Registry no. 166412-78-8), and is usually available from BASF. “Isononyl” in this context is thought to mean a mixture of two or more branched isomers of C9H19. Method: Seeds of the weed (including volunteer) plants, typically including inter alia Digitaria sanguinalis (DIGSA), Eleusine indica (ELEIN), Setaria faberi (SETFA), Zea mays (ZEAMX, corn), and sometimes also [either Brachiaria decumbens (BRADC) or Brachiaria platyphylla (BRAPP)], are sown in seed trays (troughs) containing clay loam soil (pH 7.0, 2.2% organic matter, “Trough Mix A”); and soybean seed is sown in pots containing the same soil with 3 soybean seedlings per pot. The plants are sprayed with the test herbicide when they reach the growth stages mentioned above. The test herbicidal solutions are prepared by mixing the appropriate aliquots of the test substance(s) and one of the adjuvant systems indicated above *** in deionised water to give the desired treatment concentration. The herbicidal application is made as a foliar spray, using a tracksprayer. Following the herbicidal application, the plants are watered twice per day for the duration of the test. A visual assessment of the % herbicidal damage is made 7 and 14 Days After herbicide Application (DAA) (or, in a minority of cases, 7 and 15 DAA), and the results are recorded as % visual herbicidal damage where 0%=no damage to plants and 100%=plant totally killed. *** Adjuvant system=either Adigor™ or Hexamoll DINCH™ or tris-(2-ethylhexyl) phosphate each at 0.5% v/v, and 12.5% v/v IPA (isopropyl alcohol), and 1.0% v/v AMS (ammonium sulphate); or 0.5% v/v Adigor™ and 12.5% v/v IPA (isopropyl alcohol); all percentages are final concentrations in the aqueous spray mixture.
Compounds A8, A11 and A17, which are compounds of formula (I) according to the present invention, were tested in a test method substantially as described above.
Compound A8 was tested using the 0.5% v/v Adigor™+12.5% v/v IPA adjuvant system. Compounds A11 and A17 were tested using the 0.5% v/v Adigor™+1.0% v/v AMS+12.5% v/v IPA adjuvant system.
The percentages of herbicidal damage/plant control, at 14 Days After herbicide Application (DAA) (or, in a minority of cases, at 15 DAA), for the Compounds tested and for some of the plants tested, were in the following percentage ranges. At least for Compounds A8 and A17, the phytotoxicity results shown herein are the average of 2 repetitions (for the grassy weeds, corn and soybean). […] Control of Zea mays (ZEAMX, Corn), a Warm-Climate (Warm-Season) Grassy Plant Zea mays (ZEAMX, maize, corn) is often present as a “volunteer” weed (“volunteer” corn) in fields where it was planted as a crop in preceding growing season(s) and where the present field crop is not corn. […]

[3] = 14 DAA (A11: 14 or 15 DAA), adjuvant 0.5% v/v Adigor + 1.0% v/v AMS + 12.5% v/v IPA
[4] = 14 DAA, adjuvant 0.5% v/v Adigor + 12.5% v/v IPA

Row | SMILES | percentage control of Zea mays (ZEAMX, maize, corn) [1, 3] [%] | percentage control of Eleusine indica (ELEIN) (Eleusine indica (ELEIN); [3]) [%] | percentage phytotoxicity on Glycine max (GLXMA, soybean) cultivar Nikko ([2]; 120 g/ha, 14 DAA (A11: 14 or 15 DAA), adjuvant 0.5% v/v Adigor + 1.0% v/v AMS + 12.5% v/v IPA) [%] | percentage phytotoxicity on Glycine max (GLXMA, soybean) cultivar Nikko ([2]; 240 g/ha, 14 DAA (A11: 14 or 15 DAA), adjuvant 0.5% v/v Adigor + 1.0% v/v AMS + 12.5% v/v IPA) [%] | percentage control of (phytotoxicity on) Zea mays (ZEAMX, maize, corn) [1, 4] [%] | percentage control of (phytotoxicity on) Eleusine indica (ELEIN) (Eleusine indica (ELEIN); [4]) [%] | percentage phytotoxicity on Glycine max (GLXMA, soybean) cultivar Nikko ([2]; 120 g/ha, 14 DAA, adjuvant 0.5% v/v Adigor + 12.5% v/v IPA) [%] | phytotoxicity on soybean (in words) ([2]; see Biological Example 3 (soybean cultivars Nikko and TMG133))
1 | CC#Cc1cc(F)c(C2C(=O)CC(CCSC)CC2=O)c(OC)c1 (centres unmarked) [Compound A11] | 0 | 0 | 5 | 5 |  |  |  | 
2 | C#CCC1CC(=O)C(c2c(F)cc(C#CC)cc2OC)C1=O (centres unmarked) [Compound A8, 2-(2-fluoro-6-methoxy-4-prop-1-ynyl-phenyl)-4-prop-2-ynyl-cyclopentane-1,3-dione] |  |  |  |  | 65 | 40 | 30 | low phytotoxicity
